{
  "source": "ChEMBL document CHEMBL1151696",
  "about": "(Bioorg Med Chem, 2008)",
  "note": "Active and inactive are the calls of the source. The rule behind the calls is not given here.",
  "data": [
    {"tested_on": "Vaccinia virus", "type": "functional, organism-based", "details": "Orthopoxvirus vaccinia", "values": [
      {"smiles": "COc1cccc(CNC23CC4CC(CC2C4)C3)c1", "Activity": "inactive"},
      {"smiles": "CN(Cc1ccccc1)CC12CC3CC(CC1C3)C2", "Activity": "inactive"},
      {"smiles": "c1ccc(CNCC23CC4CC(CC2C4)C3)cc1", "Activity": "inactive"},
      {"smiles": "CN(Cc1ccccc1)C12CC3(C)CC1CC3(C)C2", "Activity": "inactive"},
      {"smiles": "CC12CC3CC1(C)CC3(NCc1ccccc1)C2", "Activity": "inactive"},
      {"smiles": "COc1ccc(CNC23CC4CC(CC2C4)C3)cc1", "Activity": "inactive"},
      {"smiles": "CC12CC3CC1(C)CC3(CNCc1ccccc1)C2", "Activity": "inactive"},
      {"smiles": "c1ccc(CNC23CC4CC(CC2C4)C3)cc1", "Activity": "inactive"},
      {"smiles": "CC12CC3CC1(C)CC3(N(Cc1ccccc1)Cc1ccccc1)C2", "Activity": "inactive"},
      {"smiles": "CNC12CC3CC(CC1C3)C2", "Activity": "inactive"},
      {"smiles": "c1csc(CNC23CC4CC(CC2C4)C3)c1", "Activity": "inactive"},
      {"smiles": "CC12CC3CC1(C)CC3(NCc1cccs1)C2", "Activity": "inactive"},
      {"smiles": "CC12CC3CC1(C)CC3(CN)C2", "Activity": "inactive"},
      {"smiles": "CC12CC3CC1(C)CC3(N)C2", "Activity": "inactive"},
      {"smiles": "CNCC12CC3CC(CC1C3)C2", "Activity": "inactive"},
      {"smiles": "COc1ccccc1CNC12CC3CC(CC1C3)C2", "Activity": "inactive"},
      {"smiles": "CN(C)C12CC3CC(CC1C3)C2", "Activity": "inactive"},
      {"smiles": "CNC12CC3(C)CC1CC3(C)C2", "Activity": "inactive"},
      {"smiles": "C1CCN(C23CC4CC(CC2C4)C3)CC1", "Activity": "inactive"},
      {"smiles": "N=C(N)NCC12CC3CC(CC1C3)C2", "Activity": "inactive"},
      {"smiles": "CN(C)CC12CC3CC(CC1C3)C2", "Activity": "inactive"},
      {"smiles": "CC12CC3CC1(C)CC3(CN1CCCCC1)C2", "Activity": "inactive"},
      {"smiles": "CN(Cc1ccccc1)CC12CC3(C)CC1CC3(C)C2", "Activity": "inactive"},
      {"smiles": "CN(Cc1ccccc1)C12CC3CC(CC1C3)C2", "Activity": "inactive"},
      {"smiles": "NCC12CC3CC(CC1C3)C2", "Activity": "inactive"},
      {"smiles": "CC(N)C12CC3(C)CC1CC3(C)C2", "note": "(stereo unspecified)", "Activity": "inactive"},
      {"smiles": "Fc1ccc(CNC23CC4CC(CC2C4)C3)cc1", "Activity": "inactive"},
      {"smiles": "CN(C)CC12CC3(C)CC1CC3(C)C2", "Activity": "inactive"},
      {"smiles": "CC12CC3CC1(C)CC3(CNC(=N)N)C2", "Activity": "inactive"},
      {"smiles": "CN(C)C12CC3(C)CC1CC3(C)C2", "Activity": "inactive"},
      {"smiles": "CNCC12CC3(C)CC1CC3(C)C2", "Activity": "inactive"}
    ]}
  ]
}
